Measurements: paper PMC6394301, “Evaluation of the anticancer potential of a sulphonamide carbonic anhydrase IX inhibitor on cervical cancer cells” (Journal of Enzyme Inhibition and Medicinal Chemistry, 2019)
pIC50, pKi: −log10 of the molar value.

Tests used:
HeLa cells [1] = test: Intracellular total oxidant status (TOS); type: cell-based, human
Method: The amount of cellular TOS was measured using an automated colourimetric reading process advanced by Erel[26]. In this method, the oxidation reaction is increased by the presence of excess glycerol in the reaction medium. Ferric ion forms a coloured complex with chromogen orange in an acidic environment. The spectrophotometrically measurable colour intensity is concerned to the whole level of oxidant molecules existent in the specimen. The assay is calibrated with H2O2, and the results are expressed in terms of micromolar H2O2 per mg protein (μmol H2O2 Equiv./mg protein).

HeLa cells [2] = test: WST-1 cell viability assay, HeLa; type: cell-based, human; settings: for pIC50: WST-1
Method: (§1) Since it is an unstable amino acid, the medium was supplemented with L-glutamine immediately prior.
(§2) WST-1 Cell Proliferation test, a product of the Roche Company is a colourimetric assay based on the cleavage of a tetrazolium salt by mitochondrial dehydrogenases to generate formazan in living cells. This assay is simple because only 10 μL of WST-1 reactant is added to 100 μL media on a 96-well plate. The cells were counted with a haemocytometer immediately before the subsequent procedures. The HeLa and PNT1A cells were used for seeding, with 5 × 10^3 cells per well, and then incubated overnight in a humidified atmosphere (37 °C with 5% CO2).
(§3) The next day, WST-1 is added to cells treated with S-1 as a cytotoxic reagent and the incubation is continued for an additional 1−2 h in a humidified atmosphere. One of the advantages of the WST-1 test is that colour change (yellow) can be seen with the naked eye.
(§4) After incubation, the plate was shaken well for 1 min. The absorbance is then measured at 450 nm versus a 650 nm reference by using a plate reader (M5, Spectra MAX) and SoftMax Pro software from Molecular Devices to compare experimental samples to controls.
(§5) IC50 is a measure used to estimate the potency of a material that inhibits a specific biological or biochemical function.
We determined the cell viability of CC cell line HeLa grown in 96-well plates for 24, 48, 72 h and treated with increasing concentrations (0, 2.5, 5, 10, 25, 50, 100, 200 μM) of S-1. Cell viability was evaluated with colourimetric WST-1 assay as described previously tested on the splitting of the tetrazolium salt by mitochondria dehydrogenases in viable cell. […] The number of viable cells was then quantified using trypan blue exclusion.

PNT1-A cells = test: WST-1 cell viability assay, PNT1-A; type: cell-based, human; settings: PNT1-A 24 h
Method: as §1, §2, §3, §4, §5

HeLa cells [3] = test: Intracellular total antioxidant status (TAS); type: cell-based, human; settings: positive control group
Method: The cellular TAS amount was determined using a new colourimetric assay method, which was improved by Erel[25]. This process is withstanding on the bleaching of the ostensible colour of the 2,2′-azino-bis [3-ethylbenzothiazoline-6-sulfonic acid] (ABTS) radical cation via the action of antioxidants. Upon the addition of a sample, the oxidative reactions initiated by the hydroxyl radicals present in the reaction mixture are inhibited by the antioxidant components of the lysate, preventing colour change and thus providing an effective measure of the TAS value of the lysate. The precision of this test has high accuracy (less than 3% error rate). Analysis results were expressed as mmol Trolox equiv/mg protein.

HeLa cells [4] = test: Oxidative stress index (OSI); type: cell-based, human
Method: Percentage of TOS to TAS amount is taken into account in order to determine the oxidative stress index (OSI)[27]. Oxidative stress index was determined according to the equation outlined below:
OSI = (TOS (μ mol H2O2 equiv/g))/(TAS (μ mol Trolox equiv/g)) × 10

[5] = Stability of the imine bond in the assay medium; type: physicochemical
CA-IX = settings: read-out: Ki value of CA-IX; cited from earlier work

stability in the assay medium [5]	pIC50 (HeLa cells [2]; Homo sapiens, HeLa 24 h)	pIC50 (HeLa cells [2]; Homo sapiens, HeLa 48 h)	pIC50 (HeLa cells [2]; Homo sapiens, HeLa 72 h)	SMILES	TOS level (HeLa cells [1]; positive control group)	pIC50 (HeLa cells [2]; HeLa 24 h)	pIC50 (HeLa cells [2]; HeLa 48 h)	pIC50 (HeLa cells [2]; HeLa 72 h)	pIC50 (PNT1-A cells)	TAS value (HeLa cells [3])	OSI value (HeLa cells [4]; positive control, from TOS and TAS)	TOS level compared with Cisplatin (HeLa cells [1]; doses 50, 100 µM)	viability at 200 µM (HeLa cells [2]; Homo sapiens, HeLa, 200 μM, 48 h incubated, read-out: greatest viability loss) [%]	pKi (CA-IX)	pIC50 (PNT1-A cells; Homo sapiens, PNT1A)	OSI value compared with Cisplatin (HeLa cells [4]; 100 μM concentration)
				N.N.[Cl][Pt][Cl] [Cisplatin, cisplatin, reference compound]	11.49 μmol H2O2 Equiv./mg protein	4.54	5.12	5.21	4.87	0.67 mmol Trolox equiv/mg protein	1.72					
stable	4.60	4.37	4.08	NS(=O)(=O)c1ccc(N=Cc2cc(Cl)cc(Cl)c2O)cc1 [S-1, 4-[(3,5-Dichloro-2-hydroxybenzylidene)amino]benzenesulfonamide]								nearly same effect as Cisplatin	5.5	7.45	3.70	too close to the level of Cisplatin
